In patent US20090110671A1, “AGENT FOR ENHANCHING THE PRODUCTION OF COLLAGEN AND IT'S USE” (priority 2005, published 2009):

Experiments:
[1] = system: NHDF cells (normal human dermal fibroblast cell); assay: Experiment 1: collagen production in NHDF cells (Sircol kit), α,α-trehalose with AA-2G; format: cell-based; details: relative to AA-2G = 100
Experimental: Using “fibrocell NHDF”, a normal human dermal fibroblast cell, commercialized by Kurashiki Spinning Co., Ltd., Okayama, Japan (abbreviated as “NHDF cells”, hereinafter), experiment for studying the influence of α,α-trehalose on the collagen production by L-ascorbic acids was conducted based on the method described in Bioscience, Biotechnology, and Biochemistry, Vol. 68, No. 4, pp. 767-773, 2004. The method is outlined below: Test solutions were prepared by dissolving L-ascorbic acid 2-glucoside, a reagent grade specimen commercialized by Hayashibara Biochemical Laboratories Inc., Okayama, Japan (may be abbreviated as “AA-2G”, hereinafter), and α,α-trehalose, a reagent grade specimen commercialized by Hayashibara Biochemical Laboratories Inc., Okayama, Japan, in Dulbecco […] essential medium containing 10% (v/v) fetal calf serum and an antibiotic (abbreviated as “D-MEM”, hereinafter) to give a final concentration of 50 μM/ml of AA-2G and a final concentration of 7.5, 15 or 30 mg/ml of α,α-trehalose. NHDF cells, which had been successively cultured in D-MEM medium, were collected, re-suspended in a fresh preparation of D-MEM medium, inoculated to 96-well microplates at a cell concentration of 2.5×10^4 cells/200 μl/well, and cultured for 24 hours. Thereafter, the supernatants of the cultures were removed by sucking, and further cultured for five days after addition of any of the test solutions in a volume of 200 μl/well. As controls, the cells, which had been cultured for 24 hours, were further cultured for five days after addition of 200 μl/well of D-MEM medium, D-MEM medium supplemented with α,α-trehalose at a concentration of 30 mg/ml, or D-MEM medium supplemented with AA-2G at a concentration of 50 μM/ml. After completion of culturing, the supernatants of the cultures were removed by sucking, admixed with 50 μl/well of 1 M acetic acid solution containing 1 mg/ml of pepsin, and shaken for four hours to solubilize collagen adhered to the cell surfaces, followed by quantifying the content of collagen accumulated in the cells using “Sircol Collagen Quantification Kit”, commercialized by Biocolor Ltd. These control and test solutions were respectively experimented with three wells, followed by calculating a mean value for collagen-production levels in the wells. All the cultures of the NHDF cells were conducted in a 5% (v/v) CO2 incubator. The results are in Table 1 where the values are expressed with relative values in terms of the collagen-production level of NHDF cells, which had been cultured in D-MEM medium containing AA-2G, being regarded as 100.

[2] = system: NHDF cells; assay: Experiment 2: collagen sedimented over cell surface and released in supernatant of NHDF cells, α,α-trehalose or maltose with AA-2G; format: cell-based, human; details: relative to AA-2G = 100
Experimental: Influence of α,α-trehalose and maltose on collagen production using NHDF cells was examined by the following experiment: Test solutions were prepared by dissolving either AA-2G; hydrous crystalline α,α-trehalose, a reagent grade specimen, commercialized by Hayashibara Biochemical Laboratories Inc., Okayama, Japan; or hydrous crystalline maltose, a reagent grade specimen, commercialized by Hayashibara Biochemical Laboratories Inc., Okayama; Japan, in […] The methods for culturing NHDF cells and quantifying the collagen-production level of the cells were conducted similarly as in Experiment 1. The collagen level in each culture supernatant of NHDF cells was determined in such a manner of collecting the culture supernatant and quantifying the collagen released in the supernatant by using “Sircol Collagen Quantification Kit”. As a control, D-MEM medium containing 50 μM AA-2G was used. These control and test solutions were respectively experimented using three wells, followed by calculating a mean value for collagen-production levels in the wells. The results are in Table 2 where the values are expressed with relative values for either or both of the levels of collagen, that had sedimented over the cell surfaces or released in the supernatants, in terms of their collagen-production levels of NHDF cells, which had been cultured in D-MEM medium containing 50 μM AA-2G, being regarded as 100.

[3] = saccharide 0.2 mg/ml + 50 μM AA-2G
[4] = saccharide 0.6 mg/ml + 50 μM AA-2G
[5] = saccharide 1.7 mg/ml + 50 μM AA-2G
[6] = saccharide 5.0 mg/ml + 50 μM AA-2G
[7] = saccharide 15.0 mg/ml + 50 μM AA-2G

OC[C@H]1O[C@H](O[C@H]2O[C@H](CO)[C@@H](O)[C@H](O)[C@H]2O)[C@H](O)[C@@H](O)[C@@H]1O [α,α-trehalose]
Collagen-production level ([1]; α,α-trehalose 7.5 mg/ml + 50 μM AA-2G): 150 | Collagen-production level ([1]; α,α-trehalose 15.0 mg/ml + 50 μM AA-2G): 217 | Collagen-production level ([1]; α,α-trehalose 30.0 mg/ml + 50 μM AA-2G): 264 | Collagen-production level ([1]; α,α-trehalose 30.0 mg/ml in D-MEM, no AA-2G): 41 | Collagen-production level, In supernatant [2, 3]: 103 | Collagen-production level, Total [2, 3]: 101 | Collagen-production level, In supernatant [2, 4]: 203 | Collagen-production level, Total [2, 4]: 131 | Collagen-production level, In supernatant [2, 5]: 250 | Collagen-production level, Total [2, 5]: 154 | Collagen-production level, In supernatant [2, 6]: 232 | Collagen-production level, Total [2, 6]: 169 | Collagen-production level, In supernatant [2, 7]: 1058 | Collagen-production level, Total [2, 7]: 335
